Results reported in ChEMBL document CHEMBL1147195, “Synthesis and activity of quinolinyl-methylene-thiazolinones as potent and selective cyclin-dependent kinase 1 inhibitors” (Bioorg Med Chem Lett, 2007).

How the values were obtained:
[1] = Inhibition of CDK1/cyclinB; set-up: species or system Homo sapiens
[2] = target: Serine/threonine-protein kinase AKT (Homo sapiens, UniProt P31751+Q9Y243+P31749); assay: Inhibition of AKT; type: protein assay
[3] = target: Cyclin-dependent kinase 4 (Homo sapiens, UniProt P11802); assay: Inhibition of CDK4
[4] = target: T1, Ephrin type-B receptor 3 (Homo sapiens, UniProt P54753); assay: Inhibition of EPHB3
T1 sequence (P54753 whole entry): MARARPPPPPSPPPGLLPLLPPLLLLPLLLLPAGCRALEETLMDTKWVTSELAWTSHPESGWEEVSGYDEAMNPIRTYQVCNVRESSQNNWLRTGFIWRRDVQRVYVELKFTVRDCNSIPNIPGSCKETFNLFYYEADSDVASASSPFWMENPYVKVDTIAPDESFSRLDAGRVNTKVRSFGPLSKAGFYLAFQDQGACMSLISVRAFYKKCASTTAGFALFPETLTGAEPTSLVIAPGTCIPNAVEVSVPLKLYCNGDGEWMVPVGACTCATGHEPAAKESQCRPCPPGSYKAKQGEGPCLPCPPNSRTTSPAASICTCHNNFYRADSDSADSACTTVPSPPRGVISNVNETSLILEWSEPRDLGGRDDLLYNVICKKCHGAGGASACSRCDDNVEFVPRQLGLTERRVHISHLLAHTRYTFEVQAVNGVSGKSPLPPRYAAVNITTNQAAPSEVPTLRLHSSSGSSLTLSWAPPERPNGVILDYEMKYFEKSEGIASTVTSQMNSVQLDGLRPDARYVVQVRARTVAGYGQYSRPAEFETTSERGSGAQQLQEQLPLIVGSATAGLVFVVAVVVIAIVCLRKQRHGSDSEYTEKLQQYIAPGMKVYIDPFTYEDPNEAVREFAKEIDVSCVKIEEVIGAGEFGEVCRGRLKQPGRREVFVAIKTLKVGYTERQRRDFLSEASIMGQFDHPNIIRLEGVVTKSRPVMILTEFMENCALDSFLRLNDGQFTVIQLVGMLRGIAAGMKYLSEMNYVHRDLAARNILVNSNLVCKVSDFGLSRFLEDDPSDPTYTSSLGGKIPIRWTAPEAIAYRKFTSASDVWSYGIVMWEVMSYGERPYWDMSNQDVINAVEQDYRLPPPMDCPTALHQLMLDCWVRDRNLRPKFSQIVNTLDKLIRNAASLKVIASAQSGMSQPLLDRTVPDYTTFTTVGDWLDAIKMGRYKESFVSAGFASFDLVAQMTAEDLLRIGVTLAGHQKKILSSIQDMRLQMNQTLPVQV

[5] = target: Tyrosine-protein kinase Fyn (Homo sapiens, UniProt P06241); assay: Inhibition of FYN
[6] = target: Protein kinase C alpha type (Homo sapiens, UniProt P17252); assay: Inhibition of PKCa
[7] = target: Ribosomal protein S6 kinase alpha-3 (Homo sapiens, UniProt P51812)
[8] = target: Glycogen synthase kinase-3 (Homo sapiens, UniProt P49840+P49841); assay: Inhibition of GSKp1; type: protein assay
[9] = target: Protein kinase C delta type (Homo sapiens, UniProt Q05655); assay: Inhibition of PKCd
[10] = tested on: SJSA-1; assay: Antiproliferative activity against human SJSA1 cells; type: functional, cell-based
[11] = target: Cyclin-dependent kinase 2 (Homo sapiens, UniProt P24941); assay: Inhibition of CDK2
[12] = target: Mitogen-activated protein kinase 1 (Homo sapiens, UniProt P28482); assay: Inhibition of ERK
Sequence of Mitogen-activated protein kinase 1 (P28482 whole entry): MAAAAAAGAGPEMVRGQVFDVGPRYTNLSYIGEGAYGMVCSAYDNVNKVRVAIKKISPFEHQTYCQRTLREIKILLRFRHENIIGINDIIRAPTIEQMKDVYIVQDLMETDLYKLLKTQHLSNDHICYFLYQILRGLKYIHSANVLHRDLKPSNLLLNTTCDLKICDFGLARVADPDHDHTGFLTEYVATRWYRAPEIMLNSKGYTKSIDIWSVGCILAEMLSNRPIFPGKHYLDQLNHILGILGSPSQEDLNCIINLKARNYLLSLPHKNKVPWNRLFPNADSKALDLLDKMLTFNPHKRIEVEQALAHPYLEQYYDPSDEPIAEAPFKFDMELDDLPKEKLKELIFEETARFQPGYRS

Sequence of Protein kinase C delta type (Q05655 whole entry): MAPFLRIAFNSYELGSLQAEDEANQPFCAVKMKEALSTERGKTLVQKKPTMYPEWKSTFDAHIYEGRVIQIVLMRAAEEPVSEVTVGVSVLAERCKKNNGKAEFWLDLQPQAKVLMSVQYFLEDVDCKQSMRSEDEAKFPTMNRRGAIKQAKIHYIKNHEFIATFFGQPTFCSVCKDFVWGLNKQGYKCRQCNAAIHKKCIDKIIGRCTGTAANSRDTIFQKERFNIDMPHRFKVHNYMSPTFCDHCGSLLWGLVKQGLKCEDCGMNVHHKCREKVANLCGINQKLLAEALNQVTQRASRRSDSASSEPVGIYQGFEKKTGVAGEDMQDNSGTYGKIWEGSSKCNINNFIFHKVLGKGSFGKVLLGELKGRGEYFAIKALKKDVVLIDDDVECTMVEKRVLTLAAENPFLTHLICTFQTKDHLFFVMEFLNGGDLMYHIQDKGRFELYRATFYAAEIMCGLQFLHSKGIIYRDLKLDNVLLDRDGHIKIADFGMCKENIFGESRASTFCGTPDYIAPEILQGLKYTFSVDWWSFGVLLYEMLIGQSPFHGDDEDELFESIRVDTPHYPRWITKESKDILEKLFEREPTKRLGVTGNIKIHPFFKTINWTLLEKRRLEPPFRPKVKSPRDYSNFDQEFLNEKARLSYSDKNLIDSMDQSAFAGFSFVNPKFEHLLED
Sequence of Tyrosine-protein kinase Fyn (P06241 whole entry): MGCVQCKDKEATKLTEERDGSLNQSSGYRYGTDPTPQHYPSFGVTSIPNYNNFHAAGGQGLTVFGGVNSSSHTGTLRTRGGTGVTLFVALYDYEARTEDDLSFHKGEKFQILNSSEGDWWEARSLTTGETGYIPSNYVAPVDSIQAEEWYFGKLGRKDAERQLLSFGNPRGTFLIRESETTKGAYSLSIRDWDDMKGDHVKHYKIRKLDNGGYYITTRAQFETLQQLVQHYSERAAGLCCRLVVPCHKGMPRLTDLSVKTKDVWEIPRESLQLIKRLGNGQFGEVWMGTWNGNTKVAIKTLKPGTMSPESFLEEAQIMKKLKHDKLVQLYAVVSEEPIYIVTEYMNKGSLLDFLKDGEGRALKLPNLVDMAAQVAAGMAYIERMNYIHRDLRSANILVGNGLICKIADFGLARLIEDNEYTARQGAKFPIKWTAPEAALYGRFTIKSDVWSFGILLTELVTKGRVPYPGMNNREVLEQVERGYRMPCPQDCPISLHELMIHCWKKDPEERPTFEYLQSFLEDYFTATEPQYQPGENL
Sequence of Cyclin-dependent kinase 4 (P11802 whole entry): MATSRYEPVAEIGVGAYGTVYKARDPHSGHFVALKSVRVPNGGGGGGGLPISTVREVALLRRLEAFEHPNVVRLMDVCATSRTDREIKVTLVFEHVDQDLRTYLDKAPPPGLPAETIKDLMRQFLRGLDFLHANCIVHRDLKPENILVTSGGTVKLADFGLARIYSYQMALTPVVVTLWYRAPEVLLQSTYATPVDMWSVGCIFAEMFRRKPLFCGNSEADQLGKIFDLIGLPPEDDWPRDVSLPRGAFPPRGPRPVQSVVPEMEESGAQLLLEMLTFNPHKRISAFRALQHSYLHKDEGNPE
Sequence of Ribosomal protein S6 kinase alpha-3 (P51812 whole entry): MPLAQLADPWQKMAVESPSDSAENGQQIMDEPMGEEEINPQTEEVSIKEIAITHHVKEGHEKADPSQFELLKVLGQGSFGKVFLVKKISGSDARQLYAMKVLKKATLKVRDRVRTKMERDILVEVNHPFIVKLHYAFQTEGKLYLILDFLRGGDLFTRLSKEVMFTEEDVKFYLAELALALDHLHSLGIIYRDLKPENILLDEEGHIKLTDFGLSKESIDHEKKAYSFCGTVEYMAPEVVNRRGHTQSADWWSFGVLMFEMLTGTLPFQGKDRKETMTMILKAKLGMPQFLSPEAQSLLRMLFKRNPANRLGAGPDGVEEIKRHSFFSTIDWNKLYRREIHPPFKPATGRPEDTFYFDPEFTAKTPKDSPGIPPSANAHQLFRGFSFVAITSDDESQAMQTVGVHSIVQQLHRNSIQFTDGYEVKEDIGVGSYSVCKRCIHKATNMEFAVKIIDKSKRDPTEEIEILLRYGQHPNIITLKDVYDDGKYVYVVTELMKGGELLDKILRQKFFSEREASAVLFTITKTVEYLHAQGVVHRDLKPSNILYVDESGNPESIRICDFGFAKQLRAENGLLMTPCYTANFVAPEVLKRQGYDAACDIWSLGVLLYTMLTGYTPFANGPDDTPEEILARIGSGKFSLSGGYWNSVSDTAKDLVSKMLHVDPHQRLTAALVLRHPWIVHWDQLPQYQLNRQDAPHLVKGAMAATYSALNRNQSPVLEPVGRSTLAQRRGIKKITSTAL

Row | Compound | Ki [1] [nM] | also measured
1 | O=C1N=C(N[C@H](CO)c2ccccc2)S/C1=C\c1ccc2ncccc2c1 | 580 | –
2 | CCCCNC1=NC(=O)/C(=C/c2ccc3ncccc3c2)S1 | 310 | –
3 | COc1ccccc1CNC1=NC(=O)/C(=C/c2ccc3ncccc3c2)S1 | 86 | –
4 | CN(Cc1cccs1)C1=NC(=O)/C(=C/c2ccc3ncccc3c2)S1 | > 2000 | –
5 | Cc1ccsc1CNC1=NC(=O)/C(=C/c2ccc3ncccc3c2)S1 | 89 | –
6 | O=C1N=C(N[C@@H]2C[C@H]2c2ccccc2)S/C1=C\c1ccc2ncccc2c1 | 23 | Ki [2]: > 2000 nM; Ki [3]: > 2000 nM; Ki [4]: > 2000 nM; Ki [5]: > 2000 nM; Ki [6]: > 2000 nM; Ki [7]: > 2000 nM; Ki [8]: > 2000 nM; Ki [9]: 480 nM; IC50 [10]: 1850 nM; Ki [11]: > 2000 nM; Ki [12]: 220 nM
7 | O=C1N=C(N[C@H](CO)Cc2ccccc2)S/C1=C\c1ccc2ncccc2c1 | 2000 | –
8 | O=C1N=C(NCc2c(Cl)cccc2Cl)S/C1=C\c1ccc2ncccc2c1 | 1040 | –
9 | CCOc1ccccc1CCNC1=NC(=O)/C(=C/c2ccc3ncccc3c2)S1 | 87 | –
10 | CONC1=NC(=O)/C(=C/c2ccc3ncccc3c2)S1 | > 2000 | –
11 | NC1=NC(=O)/C(=C/c2ccc3ncccc3c2)S1 | 80 | Ki [2]: > 2000 nM; Ki [3]: > 2000 nM; Ki [4]: > 2000 nM; Ki [5]: > 2000 nM; Ki [6]: > 2000 nM; Ki [7]: > 2000 nM; Ki [8]: > 2000 nM; Ki [9]: 1700 nM; Ki [11]: 2000 nM; Ki [12]: > 2000 nM
12 | O=C1N=C(NCc2ccccn2)S/C1=C\c1ccc2ncccc2c1 | 310 | –
13 | O=C1N=C(NC2CC2)S/C1=C\c1ccc2ncccc2c1 | 270 | –
14 | O=C1N=C(NCc2cccs2)S/C1=C\c1ccc2ncccc2c1 | – | Ki [2]: > 2000 nM; Ki [4]: > 2000 nM; Ki [5]: > 2000 nM; Ki [6]: > 2000 nM; Ki [8]: 500 nM; Ki [9]: 320 nM; IC50 [10]: 4550 nM; Ki [12]: 2000 nM
15 | O=C1N=C(Nc2ccccc2)S/C1=C\c1ccc2ncccc2c1 | > 2000 | –
16 | O=C1N=C(NCc2ccccc2Br)S/C1=C\c1ccc2ncccc2c1 | 38 | –
17 | CNC1=NC(=O)/C(=C/c2ccc3ncccc3c2)S1 | 270 | –
18 | COC[C@H](NC1=NC(=O)/C(=C/c2ccc3ncccc3c2)S1)c1ccccc1 | > 2000 | –
19 | O=C1N=C(NCC(CO)c2ccccc2)S/C1=C\c1ccc2ncccc2c1 (stereo not given) | 390 | –
20 | O=C1N=C(N[C@@H](CO)c2ccccc2)S/C1=C\c1ccc2ncccc2c1 | 350 | –
21 | O=C1N=C(N[C@@H](CO)Cc2ccccc2)S/C1=C\c1ccc2ncccc2c1 | 230 | IC50 [10]: 3240 nM

Second part, led by results:

Row | Ki [1] [nM] | Compound | also measured
22 | 52 | O=C1N=C(NCc2ccccc2Cl)S/C1=C\c1ccc2ncccc2c1 | –
23 | 130 | O=C1N=C(NCCc2cccc(Cl)c2)S/C1=C\c1ccc2ncccc2c1 | –
24 | 410 | O=C1N=C(NCCc2ccc(Cl)cc2)S/C1=C\c1ccc2ncccc2c1 | –
25 | 63 | COc1ccccc1CCNC1=NC(=O)/C(=C/c2ccc3ncccc3c2)S1 | –
26 | 120 | O=C1N=C(NCCc2ccccc2F)S/C1=C\c1ccc2ncccc2c1 | –
27 | 240 | O=C1N=C(NCCCc2ccccc2)S/C1=C\c1ccc2ncccc2c1 | –
28 | 62 | O=C1N=C(NCCc2ccc(F)cc2)S/C1=C\c1ccc2ncccc2c1 | –
29 | 60 | O=C1N=C(NCCc2ccccc2)S/C1=C\c1ccc2ncccc2c1 | –
30 | 46 | O=C1N=C(NCCc2ccccc2Cl)S/C1=C\c1ccc2ncccc2c1 | –
31 | 390 | COc1ccc(CCNC2=NC(=O)/C(=C/c3ccc4ncccc4c3)S2)cc1 | –
32 | 280 | O=C1N=C(NCCc2ccccn2)S/C1=C\c1ccc2ncccc2c1 | –
33 | 45 | O=C1N=C(NCCc2cccs2)S/C1=C\c1ccc2ncccc2c1 | –
34 | 150 | O=C1N=C(NCc2ccccc2)S/C1=C\c1ccc2ncccc2c1 | –
35 | 60 | O=C1N=C(NCCc2cccc(F)c2)S/C1=C\c1ccc2ncccc2c1 | –
36 | 640 | O=C1N=C(NCCc2ccc(Br)cc2)S/C1=C\c1ccc2ncccc2c1 | –
